{"source": "paper PMC5159279", "about": "(Hypertension (Dallas, Tex. : 1979), 2016)", "key": {"[1]": {"tested_on": "hemoglobin in red blood cells", "assay": "Red blood cell oxygen p50", "conditions": "fresh human blood; 5 minutes incubation; HbαX 30 μmol/L; n=3"}, "[2]": {"tested_on": "arterioles from adipose biopsies of patients with hypertension", "assay": "Human ex vivo vasoreactivity, phenylephrine cumulative dose response", "conditions": "cumulative dose response without HbαX"}, "[3]": {"tested_on": "mice with AngII-induced hypertension", "assay": "Radiotelemetry blood pressure, AngII-induced hypertensive mice", "type": "in vivo", "conditions": "AngII 1000 ng/kg/min by osmotic mini-pump; from a baseline of 110 mmHg"}}, "data": [{"molecule": "FPYFSTKLTT [control peptide]", "values": [{"measurement": "oxygen p50 of hemoglobin in RBCs", "setting": "[1]", "result": "did not significantly change the oxygen p50"}]}, {"molecule": "CNC[C@H](O)c1cccc(O)c1", "note": "[phenylephrine]", "values": [{"measurement": "responsiveness of human arterioles to PE", "setting": "[2]", "result": "responsive"}]}, {"molecule": "Angiotensin II [AngII]", "values": [{"measurement": "systolic blood pressure on AngII", "setting": "[3]", "result": "~ 170 mmHg"}]}]}
